Data on 2 molecules can be found in patent US12138240B2, “Treatment of cardiac dysfunction” (priority 2017, dated 2024).

Read-outs that look alike come from different tables or passages of the source. A value given as a limit tells only on which side of the number the result lay.

Series [1] has as its system human subjects with sustained atrial fibrillation (AF). The experiment in a line: treatment of atrial fibrillation with A2-73 (Examples 1 and 4). It is filed as in vivo. The note with it: for AF recurrence: 30 day follow-up; for serious adverse events: to end of 30 day follow-up. Here is the method:
The safety, tolerability, and short term efficacy of […] A subject with symptomatic AF (72 hr duration) receives 30 mg of A2-73 orally every day. Dosing is initiated in hospital and continues in weekly follow-up visits. Efficacy is assessed as absence of AF recurrence on weekly 12-lead ECG and daily transtelephonic monitoring during the study. The safety, tolerability, and short term efficacy of […] A subject with symptomatic AF (72 hr duration) is administered intravenously 30 mg of A2-73 every day. Dosing is initiated in hospital and continues in weekly follow-up visits. Efficacy is assessed as absence of AF recurrence on weekly 12-lead ECG and daily transtelephonic monitoring during the study.

Series [2] deals with male healthy subjects. The experiment in a line: linear exposure-QTcF model (NONMEM). The arrangement: species or system human. The note with it: QTcFij=407+0.196*Parent−0.643*Metabolite−0.143*Time. The text has this: Data analysis proceeded from data structure analysis in S-PLUS to linear/nonlinear mixed effects modeling in NONMEM to develop the exposure-QTc relationship for ANAVEX 2-73 and its active metabolite ANAVEX 19-144. The correction method used for QT interval was the Fridericia's correction. The bootstrap was used to determine the reliability/stability of the exposure-QTc models developed. This was necessary to determine if the modeling results obtained with data from the 17 subjects would be applicable to the population at large, given the sample size. […]
The approach used in characterizing exposure-QTc relationship was as follows: • 1) Concentration and QTc versus time plots were examined for any apparent trends or associations. • 2) Subject- and dose-specific QTc vs concentration plots were also examined for association as well as for the presence of any hysteresis indicative of temporal dissociations, i.e., indirect effects. • 3) All of the QTc measurements were plotted against the paired concentration measurements. […] Additionally, models incorporating cooperativity of drug action such as competitive antagonism between ANAVEX 2-73 and ANAVEX 19-144 concentrations and QTc effect were evaluated, as warranted, using nonlinear mixed effects modeling. […]

The test system of series [3] is human subjects with sustained atrial flutter. Put plainly: treatment of atrial flutter with A2-73 (Example 2). Format: in vivo. Conditions: Example 2: 60 mg orally daily. How it is done:
The safety, tolerability, and short term efficacy of […] 2-73 in human subjects with sustained atrial flutter as follows. A subject with atrial flutter (72 hr duration) receives 60 mg of A2-73 orally daily. Dosing is initiated in hospital and continues in weekly follow-up visits. Efficacy is assessed as absence of atrial flutter recurrence on weekly 12-lead ECG and daily transtelephonic monitoring during the study.

Series [4] is described as follows: phase 2a studies, highest observed Cmax and extrapolation to 200 mg dose. The note with it: human, in vivo, footnote b, Alzheimer's disease patients, paired with ANAVEX 2-73 value, read-out: ANAVEX 19-144 Concentration, highest observed Cmax in phase 2a studies. How it is done:
Estimates are employed to apply the Exposure-QTcF relationship using observed and unlikely to be observed concentrations of the parent drug and metabolite QTc intervals are predicted, given the parameter estimates obtained with the exposure-QTcF model developed. […] The predicted QTcF for that subject is 410.67 ms, given the corresponding concentration of ANAVEX 19-144 being 38.3 ng/mL (Table 3). Thus, the QT corrected interval upon treatment with ANAVEX 2-73 is predicted to be below 420 ms.
Observed and unlikely to be observed concentrations of the parent drug and metabolite are used to predict heart rate, given the parameter estimates obtained with the exposure-heart rate model developed. […] Thus, the heart rate upon treatment with ANAVEX 2-73 is predicted to be below 75 beats/min.

Series [5] concerns the target sigma-1 receptors (Homo sapiens, UniProt Q99720). The note with it: stated as 'is believed to bind'; cited from earlier work.
Series [6] concerns muscarinic acetylcholine receptors. Conditions: stated as 'is believed to bind'; cited from earlier work.
The subject of series [7] is human subjects with sustained ventricular fibrillation. Put plainly: treatment of ventricular fibrillation with A19-144 (Example 3). Format: in vivo. Conditions: Example 3: 40 mg orally daily in two 20 mg doses. Here is the method: The safety, tolerability, and short term efficacy of […] A subject with symptomatic ventricular fibrillation (72 hr duration) receives 40 mg of A19-144 orally daily in two 20 mg doses. Dosing is initiated in hospital and continues in weekly follow-up visits. Efficacy is assessed as absence of ventricular fibrillation recurrence on weekly 12-lead ECG and daily transtelephonic monitoring during the study.

[8] abbreviates: Example 1: 30 mg orally every day.
Where [9] appears, read: Example 4: 30 mg intravenously every day.

sigma-1 receptors, sequence (Q99720 whole entry): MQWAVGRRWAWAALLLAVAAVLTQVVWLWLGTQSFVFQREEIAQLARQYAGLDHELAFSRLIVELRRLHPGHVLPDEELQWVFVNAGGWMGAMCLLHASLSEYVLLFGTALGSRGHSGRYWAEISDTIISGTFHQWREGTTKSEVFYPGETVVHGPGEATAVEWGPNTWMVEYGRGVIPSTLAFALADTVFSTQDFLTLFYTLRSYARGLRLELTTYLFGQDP

Turning to `CN(C)CC1CCOC1(c1ccccc1)c1ccccc1.Cl` (centres unmarked) [ANAVEX 2-73, 1-(2,2-diphenyltetrahydrofuran-3-yl)-N,N-dimethylmethanamine hydrochloride], in series [1] (setting [8]), the “time to cessation of AF” value is no more than 12 h, the AF recurrence entry is “does not recur” and the serious adverse events result is recorded as “no serious adverse events occur”. Besides, in series [1] (setting [9]), the “time to cessation of AF” value is no more than 12 h, the AF recurrence entry is recorded as “does not recur” and the serious adverse events result is listed as “no serious adverse events occur”. Further, the “slope on Parent in final exposure-QTcF model” value in series [2] is reported as 0.196. The “time to cessation of arrhythmia” value in series [3] is no more than 12 h. Moreover, the recurrence result in series [3] (30 day follow-up) is on record as “does not recur”. Besides, the serious adverse events result in series [3] (to end of 30 day follow-up) is “no serious adverse events occur”.

`CNCC1CCOC1(c1ccccc1)c1ccccc1.Cl` (centres unmarked) [ANAVEX 19-144, 1-(2,2-diphenyltetrahydrofuran-3-yl)-N-methylmethanamine hydrochloride]: the Cmax is 11.1 ng/mL in series [4] (50 mg) and 23.1 ng/mL in series [4]. Further, the “affinity for sigma-1 receptors” value in series [5] is “low micromolar range”. Also, in series [6], the “affinity for muscarinic acetylcholine receptors” value was “low micromolar range”. Moreover, the “time to cessation of ventricular fibrillation” value in series [7] was no more than 12 h. Also, in series [7] (30 day follow-up), the ventricular fibrillation recurrence entry is reported as “does not recur”. Moreover, the serious adverse events result in series [7] (to end of 30 day follow-up) is given as “no serious adverse events occur”.
